Laboratory results taken from ChEMBL document CHEMBL1681650, “Scaffold oriented synthesis. Part 4: design, synthesis and biological evaluation of novel 5-substituted indazoles as potent and selective kinase inhibitors employing heterocycle forming and multicomponent reactions” (Bioorg Med Chem Lett, 2011).

Experiments:
[1] = biological target: Rho-associated protein kinase 2 (Homo sapiens, UniProt O75116); assay: Inhibition of Rock2
[2] = biological target: Glycogen synthase kinase-3 beta (Homo sapiens, UniProt P49841); assay: Inhibition of GSK3-beta
Glycogen synthase kinase-3 beta, sequence (P49841 whole entry): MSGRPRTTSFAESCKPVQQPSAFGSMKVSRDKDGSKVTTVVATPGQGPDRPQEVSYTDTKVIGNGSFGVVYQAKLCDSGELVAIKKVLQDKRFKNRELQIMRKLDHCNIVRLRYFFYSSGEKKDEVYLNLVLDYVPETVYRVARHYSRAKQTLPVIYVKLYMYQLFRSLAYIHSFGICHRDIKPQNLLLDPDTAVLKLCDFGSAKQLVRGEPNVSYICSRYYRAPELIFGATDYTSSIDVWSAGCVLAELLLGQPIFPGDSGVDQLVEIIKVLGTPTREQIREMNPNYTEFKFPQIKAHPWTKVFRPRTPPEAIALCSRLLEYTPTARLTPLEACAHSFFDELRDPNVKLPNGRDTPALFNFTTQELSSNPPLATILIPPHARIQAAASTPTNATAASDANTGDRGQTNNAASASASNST

[3] = biological target: Serine/threonine-protein kinase pim-1 (Homo sapiens, UniProt P11309); assay: Inhibition of Pim1
Serine/threonine-protein kinase pim-1, sequence (P11309 whole entry): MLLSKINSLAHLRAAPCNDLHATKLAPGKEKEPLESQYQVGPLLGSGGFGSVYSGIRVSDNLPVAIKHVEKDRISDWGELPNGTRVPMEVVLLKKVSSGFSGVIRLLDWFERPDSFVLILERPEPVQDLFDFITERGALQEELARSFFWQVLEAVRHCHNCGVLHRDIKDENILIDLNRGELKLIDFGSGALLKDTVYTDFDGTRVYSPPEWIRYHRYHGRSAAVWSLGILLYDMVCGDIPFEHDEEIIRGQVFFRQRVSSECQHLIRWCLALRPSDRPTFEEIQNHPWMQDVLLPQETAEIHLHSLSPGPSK

[4] = biological target: Serine/threonine-protein kinase PAK 4 (Homo sapiens, UniProt O96013); assay: Inhibition of Pak4
Serine/threonine-protein kinase PAK 4, sequence (O96013 whole entry): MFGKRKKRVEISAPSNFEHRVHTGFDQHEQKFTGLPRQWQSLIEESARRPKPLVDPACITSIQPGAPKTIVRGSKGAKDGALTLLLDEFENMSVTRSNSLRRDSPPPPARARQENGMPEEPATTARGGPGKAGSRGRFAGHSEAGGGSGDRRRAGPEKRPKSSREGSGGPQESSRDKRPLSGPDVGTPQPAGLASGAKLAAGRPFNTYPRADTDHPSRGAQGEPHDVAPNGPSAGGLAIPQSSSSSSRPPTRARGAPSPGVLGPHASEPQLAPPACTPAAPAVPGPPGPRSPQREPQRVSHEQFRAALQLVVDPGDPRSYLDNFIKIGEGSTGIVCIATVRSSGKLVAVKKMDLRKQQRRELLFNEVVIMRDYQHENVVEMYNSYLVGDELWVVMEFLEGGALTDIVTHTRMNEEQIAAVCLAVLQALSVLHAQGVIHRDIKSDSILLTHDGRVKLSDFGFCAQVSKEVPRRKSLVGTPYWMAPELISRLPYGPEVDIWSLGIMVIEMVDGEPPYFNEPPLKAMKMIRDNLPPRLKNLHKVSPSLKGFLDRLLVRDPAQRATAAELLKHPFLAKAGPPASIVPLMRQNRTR

[5] = biological target: Vascular endothelial growth factor receptor 2 (Homo sapiens, UniProt P35968); assay: Inhibition of KDR
Vascular endothelial growth factor receptor 2, sequence (P35968 whole entry): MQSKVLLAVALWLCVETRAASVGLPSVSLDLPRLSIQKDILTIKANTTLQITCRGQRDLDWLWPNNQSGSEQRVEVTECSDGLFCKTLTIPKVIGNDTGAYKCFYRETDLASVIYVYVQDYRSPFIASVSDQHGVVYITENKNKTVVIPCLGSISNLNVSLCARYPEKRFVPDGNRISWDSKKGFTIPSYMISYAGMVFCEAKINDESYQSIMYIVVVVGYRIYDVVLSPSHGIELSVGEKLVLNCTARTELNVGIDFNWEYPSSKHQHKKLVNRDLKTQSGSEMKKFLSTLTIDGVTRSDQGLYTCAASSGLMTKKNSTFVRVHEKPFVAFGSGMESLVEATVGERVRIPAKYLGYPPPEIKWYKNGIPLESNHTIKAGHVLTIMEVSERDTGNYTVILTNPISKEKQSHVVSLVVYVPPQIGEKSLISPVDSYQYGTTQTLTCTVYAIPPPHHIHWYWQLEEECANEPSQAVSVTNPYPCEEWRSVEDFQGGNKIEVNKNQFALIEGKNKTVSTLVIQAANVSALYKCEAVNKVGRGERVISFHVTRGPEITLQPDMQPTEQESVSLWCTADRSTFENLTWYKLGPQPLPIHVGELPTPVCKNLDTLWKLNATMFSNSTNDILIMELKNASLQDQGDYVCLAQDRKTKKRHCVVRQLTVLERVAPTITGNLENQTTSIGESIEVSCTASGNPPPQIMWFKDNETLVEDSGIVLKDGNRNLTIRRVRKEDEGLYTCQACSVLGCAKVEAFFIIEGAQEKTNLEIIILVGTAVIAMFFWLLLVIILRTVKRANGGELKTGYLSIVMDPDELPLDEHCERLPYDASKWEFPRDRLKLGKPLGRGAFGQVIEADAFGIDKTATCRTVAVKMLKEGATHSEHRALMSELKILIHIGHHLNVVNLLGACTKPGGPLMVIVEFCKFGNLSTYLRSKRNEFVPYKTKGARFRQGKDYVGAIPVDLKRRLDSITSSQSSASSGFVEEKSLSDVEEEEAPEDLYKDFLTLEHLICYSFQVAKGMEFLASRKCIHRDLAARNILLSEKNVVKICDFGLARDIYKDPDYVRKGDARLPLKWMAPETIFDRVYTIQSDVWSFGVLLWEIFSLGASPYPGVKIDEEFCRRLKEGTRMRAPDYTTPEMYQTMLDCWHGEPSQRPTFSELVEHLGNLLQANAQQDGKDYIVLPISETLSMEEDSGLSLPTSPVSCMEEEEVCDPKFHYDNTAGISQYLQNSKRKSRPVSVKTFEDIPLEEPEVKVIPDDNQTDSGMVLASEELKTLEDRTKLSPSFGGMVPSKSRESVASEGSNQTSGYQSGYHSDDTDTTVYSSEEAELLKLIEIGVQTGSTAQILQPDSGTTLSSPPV

[6] = biological target: Tyrosine-protein kinase JAK2 (Homo sapiens, UniProt O60674); assay: Inhibition of JAK2
Tyrosine-protein kinase JAK2, sequence (O60674 whole entry): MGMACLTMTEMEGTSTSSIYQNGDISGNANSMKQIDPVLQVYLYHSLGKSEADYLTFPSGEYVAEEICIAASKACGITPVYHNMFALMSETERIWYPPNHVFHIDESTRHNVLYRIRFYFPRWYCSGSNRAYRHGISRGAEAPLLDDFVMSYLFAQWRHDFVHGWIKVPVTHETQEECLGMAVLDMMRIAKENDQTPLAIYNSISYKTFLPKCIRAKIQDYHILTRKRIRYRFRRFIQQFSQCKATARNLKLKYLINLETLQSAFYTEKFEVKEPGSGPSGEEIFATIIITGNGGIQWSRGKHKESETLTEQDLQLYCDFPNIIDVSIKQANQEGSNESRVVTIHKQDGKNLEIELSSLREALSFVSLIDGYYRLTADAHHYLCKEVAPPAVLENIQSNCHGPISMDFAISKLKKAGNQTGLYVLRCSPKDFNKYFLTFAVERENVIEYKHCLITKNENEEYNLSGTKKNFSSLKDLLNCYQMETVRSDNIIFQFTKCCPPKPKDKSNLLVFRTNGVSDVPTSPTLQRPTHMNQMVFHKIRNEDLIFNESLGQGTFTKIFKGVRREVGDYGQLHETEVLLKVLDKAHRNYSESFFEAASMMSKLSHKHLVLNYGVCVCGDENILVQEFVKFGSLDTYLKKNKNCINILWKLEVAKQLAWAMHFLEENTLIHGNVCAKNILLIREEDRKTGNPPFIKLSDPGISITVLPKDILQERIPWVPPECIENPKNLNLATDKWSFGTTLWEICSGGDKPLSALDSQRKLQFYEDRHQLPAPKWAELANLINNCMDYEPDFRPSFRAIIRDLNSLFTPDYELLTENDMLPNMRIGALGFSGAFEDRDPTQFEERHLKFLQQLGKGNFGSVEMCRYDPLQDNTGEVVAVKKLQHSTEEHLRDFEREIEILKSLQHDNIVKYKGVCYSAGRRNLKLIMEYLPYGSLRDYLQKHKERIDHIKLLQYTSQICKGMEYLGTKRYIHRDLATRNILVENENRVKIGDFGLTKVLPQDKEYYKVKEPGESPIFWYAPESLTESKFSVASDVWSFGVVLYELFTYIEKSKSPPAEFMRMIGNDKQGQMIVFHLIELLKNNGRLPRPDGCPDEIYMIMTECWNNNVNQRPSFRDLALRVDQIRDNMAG

[7] = biological target: Epidermal growth factor receptor (Homo sapiens, UniProt P00533); assay: Inhibition of EGFR
Epidermal growth factor receptor, sequence (P00533 whole entry): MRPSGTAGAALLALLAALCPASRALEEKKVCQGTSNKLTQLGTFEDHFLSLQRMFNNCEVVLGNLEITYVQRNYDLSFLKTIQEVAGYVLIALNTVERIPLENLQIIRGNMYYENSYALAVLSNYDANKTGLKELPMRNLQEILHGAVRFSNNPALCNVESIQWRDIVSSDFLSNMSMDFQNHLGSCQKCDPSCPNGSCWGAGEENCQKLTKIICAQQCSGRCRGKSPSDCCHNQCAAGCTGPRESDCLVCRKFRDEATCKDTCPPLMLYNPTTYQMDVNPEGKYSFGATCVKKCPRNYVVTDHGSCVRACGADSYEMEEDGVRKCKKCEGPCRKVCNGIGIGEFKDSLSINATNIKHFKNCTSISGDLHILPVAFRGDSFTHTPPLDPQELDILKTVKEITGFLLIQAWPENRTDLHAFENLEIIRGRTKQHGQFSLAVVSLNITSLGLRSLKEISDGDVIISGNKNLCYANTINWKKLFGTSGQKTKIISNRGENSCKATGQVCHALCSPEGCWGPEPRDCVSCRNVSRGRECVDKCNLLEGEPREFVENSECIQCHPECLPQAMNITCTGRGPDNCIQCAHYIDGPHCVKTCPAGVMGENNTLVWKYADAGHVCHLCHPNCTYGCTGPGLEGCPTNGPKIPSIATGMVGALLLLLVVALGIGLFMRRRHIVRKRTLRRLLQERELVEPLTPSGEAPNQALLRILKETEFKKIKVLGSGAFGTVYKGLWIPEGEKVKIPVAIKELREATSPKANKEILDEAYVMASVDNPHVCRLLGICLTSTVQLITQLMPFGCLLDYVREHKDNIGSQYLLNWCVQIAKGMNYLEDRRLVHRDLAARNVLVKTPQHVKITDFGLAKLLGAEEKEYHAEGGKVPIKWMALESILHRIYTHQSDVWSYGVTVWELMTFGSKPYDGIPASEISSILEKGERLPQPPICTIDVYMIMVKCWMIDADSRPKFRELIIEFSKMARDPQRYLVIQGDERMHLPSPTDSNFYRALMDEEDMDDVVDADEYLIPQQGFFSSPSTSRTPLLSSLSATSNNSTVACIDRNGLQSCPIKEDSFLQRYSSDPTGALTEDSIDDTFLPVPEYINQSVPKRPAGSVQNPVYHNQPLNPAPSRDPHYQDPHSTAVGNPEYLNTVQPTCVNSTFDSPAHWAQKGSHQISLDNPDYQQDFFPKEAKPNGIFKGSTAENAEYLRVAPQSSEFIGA

Structure (SMILES)	Ki [1]	Ki [2]	Ki [3]	Ki [4]	Ki [5]	Ki [6]	Ki [7]
Nc1nc(-c2ccc3[nH]ncc3c2)cs1	909 nM	4470 nM	2900 nM	> 3750 nM	> 8880 nM	–	–
c1ccn2c(NC3CCCCC3)c(-c3ccc4[nH]ncc4c3)nc2c1	2480 nM	2610 nM	2310 nM	–	–	–	–
CCNc1nc(-c2ccc3[nH]ncc3c2)cs1	888 nM	3930 nM	1950 nM	> 3750 nM	> 8880 nM	–	–
CCCCNc1c(-c2ccc3[nH]ncc3c2)nc2ncccn12	116 nM	19 nM	114 nM	> 3750 nM	> 8880 nM	–	–
c1ccc(CNc2nc(-c3ccc4[nH]ncc4c3)c(-c3ccccc3)s2)cc1	822 nM	3400 nM	> 8750 nM	> 3750 nM	> 8880 nM	–	–
Cc1nc(-c2ccc3[nH]ncc3c2)cs1	513 nM	2860 nM	4160 nM	> 3750 nM	> 8880 nM	–	–
Clc1ccc(Nc2c(-c3ccc4[nH]ncc4c3)nc3ncccn23)cc1	1560 nM	121 nM	> 8750 nM	> 3750 nM	> 8880 nM	–	–
c1ccc(-c2c(-c3ccc4[nH]ncc4c3)nc3ncccn23)cc1	6 nM	10 nM	339 nM	> 3750 nM	> 8880 nM	–	–
c1ccc(Nc2nc(-c3ccc4[nH]ncc4c3)c(-c3ccccc3)s2)cc1	1410 nM	> 5450 nM	> 8750 nM	> 3750 nM	> 8880 nM	–	–
CN(C)CCn1cnc(-c2ccc(F)cc2)c1-c1ccc2[nH]ncc2c1	> 6000 nM	> 5450 nM	> 8750 nM	> 3750 nM	> 8880 nM	> 1450 nM	67 nM
Fc1ccc(-c2ncn(C3CCN(Cc4ccccc4)C3)c2-c2ccc3[nH]ncc3c2)cc1 (centres undefined)	> 6000 nM	> 5450 nM	> 8750 nM	> 3750 nM	> 8880 nM	> 1450 nM	8 nM
Fc1ccc(-c2ncn(CCCN3CCOCC3)c2-c2ccc3[nH]ncc3c2)cc1	> 6000 nM	> 5450 nM	> 8750 nM	> 3750 nM	> 8880 nM	> 1450 nM	27 nM
c1cn2c(NC3CCCCC3)c(-c3ccc4[nH]ncc4c3)nc2s1	622 nM	642 nM	1290 nM	–	5340 nM	–	–
c1cn2c(NC3CCCCC3)c(-c3ccc4[nH]ncc4c3)nc2cn1	–	–	1850 nM	–	–	–	–
c1ccc(CCNc2nc(-c3ccc4[nH]ncc4c3)cs2)cc1	364 nM	> 5450 nM	> 8750 nM	> 3750 nM	> 8880 nM	–	–
